The source of these data is US8362066B2, “Compounds and methods for treating protein folding disorders” (Treventis Corporation, priority 2006, dated 2013).

Entries after “also recorded” stand apart in the source; their conditions may differ.

Assay [1] deals with APP/PS1 transgenic mice hippocampal slices. The assay is described as follows: LTP electrophysiology in hippocampal slices. To be noted: 50 μM, FIG. 18. It counts as cell-based. As to the method:
Electrophysiological analysis was performed on males (see detailed description in Gong, B., el al., Cell (2006) 126: 775-88). Hippocampal slices (400 μm) were cut with a tissue chopper and maintained in an interface chamber at 29° C. for 90 min prior to recording. Briefly. CA1 fEPSPs were recorded by placing both the stimulating and the recording electrodes in CA1 stratum radiatum. Basal synaptic transmission was assayed by plotting the stimulus voltages against slopes of fEPSP. For LTP experiments, a 15 min baseline was recorded every min at an intensity that evokes a response ˜35% of the maximum evoked response. LTP was induced using θ-burst stimulation (4 pulses at 100 Hz, with the bursts repeated at 5 Hz and each tetanus including 3 ten-burst trains separated by 15 sec).

The target in assay [2] is α-synuclein (Homo sapiens, UniProt P37840). The assay is described as follows: ThT fluorescence assay, α-synuclein aggregation. To be noted: α-synuclein 4 μM; compound 100 μM and 20 μM; 96 hours, 37° C., FIG. 16. It counts as biochemical. On the procedure: The following procedures were used. The compounds were examined by circular dichroism (CD) to confirm their anti-amyloidogenic activity and were further evaluated for inhibition of both tau and α-synuclein aggregation in Thioflavin S (ThS) and ThT dye-binding fluorescence assays, respectively. The compounds were also evaluated in a MTT [3-(4,5-dimethylthiazol-2-yl)-2,5-diphenyltetrazolium bromide] cell viability assay (Kaneko, I., et al., J. Neurochem. (1995) 65: 2585-93). Pharmacokinetic (PK) testing was also performed. Compounds administered to mice (IP or PO dosing) had no toxicity at doses up to 300 mg/kg and were present in brain more than four hours after administration.
Dye-binding ThT/ThS protein aggregation assays for Aβ, tau and α-synuclein were performed as described in Example 8 of US2007/0015813.

`O=C(O)c1ccc2[nH]cc(-c3ccc4cc(O)ccc4c3)c2c1` [QR-0217]: the “rescue of LTP impairment” value in assay [1] is “significantly rescued impairment of LTP; also recorded: significantly (P=0.022) rescuing impairment of LTP”. In addition, the “inhibition of α-synuclein aggregation (ThT fluorescence)” value in assay [2] was “showed inhibition”.
